In the METLIN SMRT retention time set (Domingo-Almenara et al. 2019):

Test: gradient 5% acetonitrile 3 min, to 50% in 2 min, to 85% in 15 min, held 3 min, 100 µL/min
Details: column: Zorbax Extend-C18 2.1 x 50 mm; eluents: water / acetonitrile, 0.1% formic acid
How it was run: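 Data were gathered over 3 months by HPLC coupled to a quadrupole time-of-flight mass spectrometer, operated in positive and negative ionization mode. Mixtures of ~100 pure standards ran on a Zorbax Extend-C18 column (2.1 × 50 mm, 1.8 μm) at 100 μL/min, with water and acetonitrile each containing 0.1% formic acid and dead and dwell volumes of 40 μL and 900 μL. Retention time was read from adduct peaks picked by computer and checked manually.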

| Compound | RP-LC retention time [s] |
| --- | --- |
| CN1CCC(=C2c3ccccc3C(O)c3ccccc32)CC1 (stereo unspecified) | 665 |
| Cc1ccc(-c2noc(-c3nc(-c4cccnc4)no3)n2)cc1 | 1090 |
| CCOC(=O)c1[nH]c(C)c(CCC(=O)N2CCC(C(=O)NCCc3ccccc3)CC2)c1C | 795 |
| O=C1NCCCCCCN(C(=O)Nc2ccccc2)[C@H]2CCCC[C@@H]12 | 805 |
| Cc1ccc(C)c(N2CCN(S(=O)(=O)c3c(C)sc(C)c3-c3n[nH]c(C)c3C)CC2)c1 | 1190 |
| CCc1nc2cc(-c3noc(-c4ccc(OC)cc4C)n3)ccc2o1 | 1270 |
| CC(C)CC(=O)Nc1nc(-c2ccc3c(c2)N(C)C(=O)C(C)O3)cs1 (stereo unspecified) | 921 |
| CCCn1c(=O)c(C)nc2cc(-c3noc(C4CC(=O)N(c5ccc(C)c(C)c5)C4)n3)ccc21 (stereo unspecified) | 1050 |
| O=C(NCCCn1c(C(F)(F)F)nc2cccnc21)Nc1ccccc1Br | 860 |
| CCCCN1CCN(Cc2nc(-c3ccc(N4CCOCC4)nc3)no2)CC1 | 587 |
| Cc1ccc2nc(-c3ccc(N(C)C)cc3)c(Nc3ccc4c(c3)OCCO4)n2c1 | 726 |
| c1ccc(-c2nc3ncc4c(n3n2)CCC4)cc1 | 756 |
| CN1C(=O)C(F)=C[C@]2(C)[C@H]3CC[C@]4(C)[C@@H](C(=O)NCc5nc6ncccc6[nH]5)CC[C@H]4[C@@H]3CC[C@@H]12 | 719 |
| Nc1nc(CC(=O)Nc2ccc(CCNC[C@H](O)c3ccccc3)cc2)cs1 | 591 |
| CCC(=O)NCc1nc2c(n1CC)CN(S(=O)(=O)c1ccc(Cl)cc1)CC2 | 538 |
| c1ccc(CNc2nc(-c3ccccc3)no2)cc1 | 975 |
| CS(=O)(=O)Nc1ccc2nc(S(C)(=O)=O)sc2c1 | 661 |

The remaining lines, values ahead:

| RP-LC retention time [s] | Compound |
| --- | --- |
| 916 | O=C(Nc1ccc(F)c(F)c1)c1c(O)c2cccnc2n(-c2ccccc2)c1=O |
| 672 | CCN1CCN(c2ccc(NC(=O)c3ccccc3Cl)cn2)C1=O |
| 678 | O=C(COc1ccccc1)NCc1c(-c2ccccc2)nc2n1CCS2 |
| 721 | CC1=C(c2ccccc2)S(=O)(=O)N=C1N1CCCN(C(=O)c2sccc2C)CC1 |
| 813 | Cn1ncc(Cl)c1C(=O)N1CCCC1c1cccc(F)c1 (stereo unspecified) |
| 932 | CCn1nccc1-c1cccc(-c2noc(C3CCN(S(=O)(=O)c4ccc(Cl)cc4)CC3)n2)c1 |
| 761 | CCCn1cc(S(=O)(=O)N2CCN(c3cccc(Cl)c3)CC2)c2cccnc21 |
| 1310 | Cc1cc(NC(=O)c2c(O)c3cccnc3n(-c3cccc(F)c3)c2=O)ccc1F |
| 540 | CCn1cnc(S(=O)(=O)N2CCC(C(=O)NCc3ccccn3)CC2)c1 |
| 703 | CCN1CCn2cc(S(=O)(=O)Nc3cccc(C(=O)OC)c3)cc2C1=O |
| 769 | CCSc1nnc(NC(=O)C2CCCN(Cc3nc(-c4cccs4)no3)C2)s1 (stereo unspecified) |
| 658 | O=C(NCc1n[nH]c(=O)c2ccccc12)C(=O)N1CCN(c2ccccc2)CC1 |
| 587 | Cc1cc2c(cc1S(=O)(=O)N(C)CC(=O)N1CCN(c3ccccn3)CC1)OC(C)C(=O)N2 (stereo unspecified) |
| 640 | COc1ccc(-c2nc(C)cc(C)c2CNS(=O)(=O)c2cccc(C#N)c2)cc1 |
| 798 | CCOc1cc(=O)n2c(c1C(=O)Nc1ccc(Br)cc1)CCCC2 |
| 827 | COc1ccc(OC)c(CNC(=O)C2CCCN(c3ccc(=O)n(-c4cccc(F)c4)n3)C2)c1 (stereo unspecified) |
| 807 | CCc1cccc(NS(=O)(=O)c2cc(-c3c(CC)noc3NC(C)=O)ccc2OC)c1 |
| 919 | O=C(Cc1csc(Nc2ccc(Cl)cn2)n1)N1CCCc2ccccc21 |
| 745 | CCOC(=O)CNC(=O)N1CCCC1c1cccc(F)c1 (stereo unspecified) |
